Laboratory results reported in patent US20230265151A1, “GIP/GLP1 CO-AGONIST COMPOUNDS” (priority 2020, published 2023).
Like-named read-outs stand apart in the source and are kept apart here.

Assays:
Format in all cases: cell-based
[1] = biological target: hGLP-1R (Homo sapiens, UniProt P43220); test: Functional cAMP formation (HTRF) in HEK-293 clonal cells expressing hGLP-1R, 0.1% bovine casein, without or with 1.0% human serum albumin; design: expressed in transfected cells; conditions: for Emax: percent of maximal response to GLP-1(7-36)NH2; for EC50: cAMP
Sequence of hGLP-1R (P43220 24-463): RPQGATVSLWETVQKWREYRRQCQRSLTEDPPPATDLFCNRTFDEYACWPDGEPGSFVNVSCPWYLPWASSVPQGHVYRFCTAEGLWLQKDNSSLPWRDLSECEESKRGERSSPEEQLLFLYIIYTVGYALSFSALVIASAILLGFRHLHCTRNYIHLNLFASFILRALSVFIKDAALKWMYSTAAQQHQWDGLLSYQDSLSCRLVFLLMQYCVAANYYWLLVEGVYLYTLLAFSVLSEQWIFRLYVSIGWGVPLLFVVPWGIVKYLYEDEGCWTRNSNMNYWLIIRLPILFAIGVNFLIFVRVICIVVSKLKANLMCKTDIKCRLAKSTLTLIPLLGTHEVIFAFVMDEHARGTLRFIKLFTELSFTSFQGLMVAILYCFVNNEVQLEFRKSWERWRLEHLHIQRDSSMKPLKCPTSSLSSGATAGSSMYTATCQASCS
How it was run: (§1)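 Cells were stimulated with peptide for 30 min at 37° C, then lysed in buffer carrying cAMP-d2 and anti-cAMP Eu3+-cryptate for a competitive HTRF read after at least 60 min at room temperature. The 665/620 nm ratio was converted to nM cAMP against a standard curve.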

[2] = biological target: T1, hGCGR (Homo sapiens, UniProt P47871); test: Functional cAMP formation (HTRF) in HEK-293 clonal cells expressing hGCGR, 0.1% bovine casein, without or with 1.0% human serum albumin; conditions: cAMP, 37° C.
T1 construct: expressed in transfected cells
T1 sequence (P47871 26-477): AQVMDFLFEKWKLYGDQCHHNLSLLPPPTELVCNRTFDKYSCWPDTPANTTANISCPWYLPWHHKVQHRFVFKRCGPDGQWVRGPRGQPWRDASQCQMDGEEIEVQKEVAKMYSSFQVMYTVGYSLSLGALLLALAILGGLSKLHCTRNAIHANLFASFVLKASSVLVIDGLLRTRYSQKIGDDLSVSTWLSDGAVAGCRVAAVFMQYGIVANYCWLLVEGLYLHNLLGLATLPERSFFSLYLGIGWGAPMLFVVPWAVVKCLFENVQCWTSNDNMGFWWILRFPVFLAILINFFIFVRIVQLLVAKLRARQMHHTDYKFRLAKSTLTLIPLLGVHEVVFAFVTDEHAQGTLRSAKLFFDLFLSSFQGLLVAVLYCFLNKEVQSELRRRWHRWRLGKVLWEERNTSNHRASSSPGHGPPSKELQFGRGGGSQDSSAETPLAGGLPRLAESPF
How it was run: as §1

[3] = biological target: T2, hGIPR (Homo sapiens, UniProt P48546); test: Functional cAMP formation (HTRF) in HEK-293 clonal cells expressing hGIPR, 0.1% bovine casein, without or with 1.0% human serum albumin; conditions: for Emax: percent of maximal response to GIP(1-42)NH2; for EC50: cAMP, 0.1% bovine casein (no human serum albumin), geometric mean
T2 construct: expressed in transfected cells
T2 sequence (P48546 22-466): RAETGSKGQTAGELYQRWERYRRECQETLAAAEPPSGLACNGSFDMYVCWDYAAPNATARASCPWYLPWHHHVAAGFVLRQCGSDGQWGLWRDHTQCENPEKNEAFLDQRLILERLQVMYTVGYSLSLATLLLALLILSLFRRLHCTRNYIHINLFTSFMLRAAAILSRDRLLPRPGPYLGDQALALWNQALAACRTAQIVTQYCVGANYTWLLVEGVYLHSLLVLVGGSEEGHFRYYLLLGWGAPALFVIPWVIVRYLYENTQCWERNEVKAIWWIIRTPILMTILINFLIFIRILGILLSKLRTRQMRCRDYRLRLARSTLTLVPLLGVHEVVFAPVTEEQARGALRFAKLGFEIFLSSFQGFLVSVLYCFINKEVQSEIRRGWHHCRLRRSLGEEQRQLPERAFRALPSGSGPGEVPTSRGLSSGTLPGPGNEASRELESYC
How it was run: as §1

[4] = HEK293, read-out: hGLP-1R Emax, % ± SEM, cAMP, 37° C., 0.1% bovine casein and 1.0% human serum albumin
[5] = hGLP-1R EC50, nM (SEM, n), 37° C., 0.1% bovine casein (no human serum albumin), geometric mean
[6] = hGCGR EC50, nM (SEM, n), 0.1% bovine casein (no human serum albumin), geometric mean
[7] = hGCGR EC50, nM (SEM, n), 0.1% bovine casein and 1.0% human serum albumin, geometric mean (SEM, n)
[8] = HEK293, read-out: hGIPR Emax, % ± SEM, cAMP, 37° C., 0.1% bovine casein and 1.0% human serum albumin
[9] = HEK293, read-out: hGIPR Emax, % ± SEM, cAMP, 37° C., 0.1% bovine casein, arithmetic mean
[10] = hGIPR EC50, nM (SEM, n), 37° C.

Structure (SMILES) | Emax [1, 4] | Emax ([1]; HEK293, read-out: hGLP-1R Emax, % ± SEM, cAMP, 37° C., 0.1% bovine casein, arithmetic mean) | EC50 [1, 5] | EC50 [2, 6] | EC50 [2, 7] | Emax [3, 8] | Emax [3, 9] | EC50 [3, 10] | Emax ([1]; HEK293, cAMP, 37° C., 0.1% bovine casein and 1.0% human serum albumin, read-out: hGLP-1R Emax, % ± SEM) | EC50 ([1]; 37° C., 0.1% bovine casein (no human serum albumin), geometric mean, read-out: hGLP-1R EC50, nM (SEM, n)) | EC50 ([1]; 37° C., 0.1% bovine casein and 1.0% human serum albumin, geometric mean (SEM, n), read-out: hGLP-1R EC50, nM (SEM, n)) | EC50 ([2]; 0.1% bovine casein (no human serum albumin), geometric mean, read-out: hGCGR EC50, nM (SEM, n)) | EC50 ([2]; 0.1% bovine casein and 1.0% human serum albumin, geometric mean (SEM, n), read-out: hGCGR EC50, nM (SEM, n)) | Emax ([3]; HEK293, cAMP, 37° C., 0.1% bovine casein and 1.0% human serum albumin, read-out: hGIPR Emax, % ± SEM) | Emax ([3]; HEK293, cAMP, 37° C., 0.1% bovine casein, arithmetic mean, read-out: hGIPR Emax, % ± SEM) | EC50 ([3]; 37° C., read-out: hGIPR EC50, nM (SEM, n))
CC[C@H](C)[C@H](NC(=O)[C@H](CCCN)NC(=O)[C@H](CC(=O)O)NC(=O)[C@H](CC(C)C)NC(=O)[C@](C)(CC(C)C)NC(=O)[C@@H](NC(=O)C(C)(C)NC(=O)[C@H](Cc1ccncc1)NC(=O)[C@H](CC(=O)O)NC(=O)[C@H](CO)NC(=O)[C@@H](NC(=O)[C@](C)(Cc1ccccc1F)NC(=O)[C@@H](NC(=O)CNC(=O)[C@H](CCC(=O)O)NC(=O)C(C)(C)NC(=O)[C@@H](N)Cc1ccc(O)cc1)[C@@H](C)O)[C@@H](C)O)[C@@H](C)CC)C(=O)N[C@@H](C)C(=O)N[C@@H](CCC(N)=O)C(=O)NC(C)(C)C(=O)N[C@@H](CCC(=O)O)C(=O)N[C@@H](Cc1ccccc1)C(=O)N[C@H](C(=O)N[C@@H](CCCCNC(=O)COCCOCCNC(=O)COCCOCCNC(=O)COCCOCCNC(=O)CC[C@H](NC(=O)CCCCCCCCCOc1ccc(C(=O)O)cc1)C(=O)O)C(=O)N[C@@](C)(Cc1ccc(O)cc1)C(=O)N[C@@H](CC(C)C)C(=O)N[C@H](C(=O)N[C@@H](CCCCNC(=O)COCCOCCNC(=O)COCCOCCNC(=O)COCCOCCNC(=O)CC[C@H](NC(=O)CCCCCCCCCOc1ccc(C(=O)O)cc1)C(=O)O)C(=O)NCC(=O)NCC(=O)N1CCC[C@H]1C(=O)N[C@@H](CO)C(=O)N[C@@H](CO)C(=O)NCC(=O)N[C@@H](C)C(=O)N1CCC[C@H]1C(=O)N1CCC[C@H]1C(=O)N1CCC[C@H]1C(=O)N[C@@H](CO)C(N)=O)[C@@H](C)CC)[C@@H](C)CC [Example 345] | 110% | 105% | 0.285 nM | > 9950 nM | > 9950 nM | 86.8% | 98.9% | 0.0147 nM | – | – | – | – | – | – | – | –
CC[C@H](C)[C@H](NC(=O)[C@H](CCCN)NC(=O)[C@H](CC(=O)O)NC(=O)[C@H](CC(C)C)NC(=O)[C@](C)(CC(C)C)NC(=O)[C@@H](NC(=O)C(C)(C)NC(=O)[C@H](Cc1ccc(O)cc1)NC(=O)[C@H](CC(=O)O)NC(=O)[C@H](CO)NC(=O)[C@@H](NC(=O)[C@](C)(Cc1ccccc1F)NC(=O)[C@@H](NC(=O)CNC(=O)[C@H](CCC(=O)O)NC(=O)C(C)(C)NC(=O)[C@@H](N)Cc1ccc(O)cc1)[C@@H](C)O)[C@@H](C)O)[C@@H](C)CC)C(=O)N[C@@H](C)C(=O)N[C@@H](CCC(N)=O)C(=O)NC(C)(C)C(=O)N[C@@H](CCC(=O)O)C(=O)N[C@@H](Cc1ccccc1)C(=O)N[C@H](C(=O)N[C@@H](CCCCNC(=O)COCCOCCNC(=O)COCCOCCNC(=O)COCCOCCNC(=O)CC[C@H](NC(=O)CCCCCCCCCOc1ccc(C(=O)O)cc1)C(=O)O)C(=O)N[C@@](C)(Cc1ccc(O)cc1)C(=O)N[C@@H](CC(C)C)C(=O)N[C@H](C(=O)N[C@@H](CCCCNC(=O)COCCOCCNC(=O)COCCOCCNC(=O)COCCOCCNC(=O)CC[C@H](NC(=O)CCCCCCCCCOc1ccc(C(=O)O)cc1)C(=O)O)C(=O)NCC(=O)NCC(=O)N1CCC[C@H]1C(=O)N[C@@H](CO)C(=O)N[C@@H](CO)C(=O)NCC(=O)N[C@@H](C)C(=O)N1CCC[C@H]1C(=O)N1CCC[C@H]1C(=O)N1CCC[C@H]1C(=O)N[C@@H](CO)C(N)=O)[C@@H](C)CC)[C@@H](C)CC [Example 346] | 97.7% | – | 0.329 nM | > 9950 nM | > 9950 nM | 83.9% | 96.6% | 0.0194 nM | – | – | – | – | – | – | – | –
CC[C@H](C)[C@H](NC(=O)[C@H](CCCN)NC(=O)[C@H](CC(=O)O)NC(=O)[C@H](CC(C)C)NC(=O)[C@](C)(CC(C)C)NC(=O)[C@@H](NC(=O)C(C)(C)NC(=O)[C@@H](NC(=O)[C@H](CC(=O)O)NC(=O)[C@H](CO)NC(=O)[C@@H](NC(=O)[C@](C)(Cc1ccccc1F)NC(=O)[C@@H](NC(=O)CNC(=O)[C@H](CCC(=O)O)NC(=O)C(C)(C)NC(=O)[C@@H](N)Cc1ccc(O)cc1)[C@@H](C)O)[C@@H](C)O)C(C)C)[C@@H](C)CC)C(=O)N[C@@H](C)C(=O)N[C@@H](CCC(N)=O)C(=O)NC(C)(C)C(=O)N[C@@H](CCC(=O)O)C(=O)N[C@@H](Cc1ccccc1)C(=O)N[C@H](C(=O)N[C@@H](CCCCNC(=O)COCCOCCNC(=O)COCCOCCNC(=O)COCCOCCNC(=O)CC[C@H](NC(=O)CCCCCCCCCOc1ccc(C(=O)O)cc1)C(=O)O)C(=O)N[C@@](C)(Cc1ccc(O)cc1)C(=O)N[C@@H](CC(C)C)C(=O)N[C@H](C(=O)N[C@@H](CCCCNC(=O)COCCOCCNC(=O)COCCOCCNC(=O)COCCOCCNC(=O)CC[C@H](NC(=O)CCCCCCCCCOc1ccc(C(=O)O)cc1)C(=O)O)C(=O)NCC(=O)NCC(=O)N1CCC[C@H]1C(=O)N[C@@H](CO)C(=O)N[C@@H](CO)C(=O)NCC(=O)N[C@@H](C)C(=O)N1CCC[C@H]1C(=O)N1CCC[C@H]1C(=O)N1CCC[C@H]1C(=O)N[C@@H](CO)C(N)=O)[C@@H](C)CC)[C@@H](C)CC [Example 347] | – | – | 0.356 nM | > 9950 nM | > 9950 nM | 84.6% | 98% | 0.0259 nM | – | – | – | – | – | – | – | –
CC[C@H](C)[C@H](NC(=O)[C@H](CC(C)C)NC(=O)[C@](C)(Cc1ccc(O)cc1)NC(=O)[C@@H](CCC(=O)O)NC(=O)[C@@H](NC(=O)[C@H](Cc1ccccc1)NC(=O)[C@H](CCCN)NC(=O)C(C)(C)NC(=O)[C@H](CCC(N)=O)NC(=O)[C@H](C)NC(=O)[C@H](CCCCNC(=O)COCCOCCNC(=O)COCCOCCNC(=O)CC[C@H](NC(=O)CCCCCCCCCCCCC(=O)O)C(=O)O)NC(=O)[C@H](CCCN)NC(=O)[C@H](CC(=O)O)NC(=O)[C@H](CC(C)C)NC(=O)[C@](C)(CC(C)C)NC(=O)[C@@H](NC(=O)C(C)(C)NC(=O)[C@H](Cc1ccncc1)NC(=O)[C@H](CC(=O)O)NC(=O)[C@H](CO)NC(=O)[C@@H](NC(=O)[C@](C)(Cc1ccccc1F)NC(=O)[C@@H](NC(=O)CNC(=O)[C@H](CCC(=O)O)NC(=O)C(C)(C)NC(=O)[C@@H](N)Cc1ccc(O)cc1)[C@@H](C)O)[C@@H](C)O)[C@@H](C)CC)[C@@H](C)CC)C(=O)N[C@@H](CCCCNC(=O)COCCOCCNC(=O)COCCOCCNC(=O)CC[C@H](NC(=O)CCCCCCCCCCCCC(=O)O)C(=O)O)C(=O)NCC(=O)NCC(=O)N1CCC[C@H]1C(=O)N[C@@H](CO)C(=O)N[C@@H](CO)C(=O)NCC(=O)N[C@@H](C)C(=O)N1CCC[C@H]1C(=O)N1CCC[C@H]1C(=O)N1CCC[C@H]1C(=O)N[C@@H](CO)C(N)=O [Example 348] | – | – | – | – | – | – | – | – | 98% | 0.805 nM | 8.95 nM | > 9950 nM | > 9950 nM | 79.3% | 95.9% | 0.0228 nM
